± gives the expanded uncertainty stated by the source.
Test: activity coefficient (dimensionless); of the first substance listed, at infinite dilution; xn = mol fraction of the nth substance listed
Settings: 101 kPa, Liquid, Chromatography, x1 = 0

Row | SMILES | activity coefficient (318.15 K) | activity coefficient (328.15 K) | activity coefficient (338.15 K) | activity coefficient (348.15 K) | activity coefficient (358.15 K) | activity coefficient (368.15 K)
1 | CCCCCCCCCC [decane] + COCC[N+]1(C)CCCC1.O=S(=O)([N-]S(=O)(=O)C(F)(F)F)C(F)(F)F | 83.1 ± 5.7 | 75.5 ± 5.2 | 68.1 ± 4.7 | 61.8 ± 4.2 | 56.1 ± 3.8 | 51.3 ± 3.5
2 | CCOCC [diethyl ether] + COCC[N+]1(C)CCCC1.O=S(=O)([N-]S(=O)(=O)C(F)(F)F)C(F)(F)F | 2.79 ± 0.19 | 2.79 ± 0.19 | 2.78 ± 0.19 | 2.78 ± 0.19 | 2.78 ± 0.19 | 2.78 ± 0.19
3 | CC(C)OC(C)C [diisopropyl ether] + COCC[N+]1(C)CCCC1.O=S(=O)([N-]S(=O)(=O)C(F)(F)F)C(F)(F)F | 6.63 ± 0.45 | 6.55 ± 0.45 | 6.46 ± 0.44 | 6.39 ± 0.44 | 6.31 ± 0.43 | 6.23 ± 0.42
4 | CCCOCCC [dipropyl ether] + COCC[N+]1(C)CCCC1.O=S(=O)([N-]S(=O)(=O)C(F)(F)F)C(F)(F)F | 7.22 ± 0.49 | 7.03 ± 0.48 | 6.82 ± 0.46 | 6.64 ± 0.45 | 6.47 ± 0.44 | 6.32 ± 0.43
5 | CCO [ethanol] + COCC[N+]1(C)CCCC1.O=S(=O)([N-]S(=O)(=O)C(F)(F)F)C(F)(F)F | 1.77 ± 0.12 | 1.63 ± 0.11 | 1.48 ± 0.1 | 1.38 ± 0.09 | 1.28 ± 0.08 | 1.2 ± 0.08
6 | CCOC(C)=O [ethyl acetate] + COCC[N+]1(C)CCCC1.O=S(=O)([N-]S(=O)(=O)C(F)(F)F)C(F)(F)F | 0.95 ± 0.06 | 0.97 ± 0.06 | 0.98 ± 0.06 | 1 ± 0.06 | 1.02 ± 0.06 | 1.03 ± 0.06
7 | CCc1ccccc1 [ethylbenzene] + COCC[N+]1(C)CCCC1.O=S(=O)([N-]S(=O)(=O)C(F)(F)F)C(F)(F)F | 2.23 ± 0.15 | 2.24 ± 0.15 | 2.24 ± 0.15 | 2.25 ± 0.15 | 2.25 ± 0.15 | 2.26 ± 0.15
8 | CCCCCCC [heptane] + COCC[N+]1(C)CCCC1.O=S(=O)([N-]S(=O)(=O)C(F)(F)F)C(F)(F)F | 28 ± 1.9 | 25.9 ± 1.8 | 24.2 ± 1.7 | 22.6 ± 1.5 | 21.1 ± 1.4 | 19.7 ± 1.3
9 | C=CCCCC [hex-1-ene] + COCC[N+]1(C)CCCC1.O=S(=O)([N-]S(=O)(=O)C(F)(F)F)C(F)(F)F | 9.74 ± 0.66 | 9.34 ± 0.64 | 8.92 ± 0.61 | 8.61 ± 0.59 | 8.24 ± 0.56 | 7.96 ± 0.54
10 | CCCCCC [hexane] + COCC[N+]1(C)CCCC1.O=S(=O)([N-]S(=O)(=O)C(F)(F)F)C(F)(F)F | 19 ± 1.3 | 17.8 ± 1.2 | 16.7 ± 1.1 | 15.9 ± 1.1 | 15 ± 1 | 14.3 ± 1
11 | CO [methanol] + COCC[N+]1(C)CCCC1.O=S(=O)([N-]S(=O)(=O)C(F)(F)F)C(F)(F)F | 1.37 ± 0.09 | 1.27 ± 0.08 | 1.18 ± 0.08 | 1.1 ± 0.07 | 1.03 ± 0.06 | 0.972 ± 0.061
12 | CCCC(=O)OC [methyl butanoate] + COCC[N+]1(C)CCCC1.O=S(=O)([N-]S(=O)(=O)C(F)(F)F)C(F)(F)F | 1.29 ± 0.08 | 1.31 ± 0.09 | 1.33 ± 0.09 | 1.35 ± 0.09 | 1.36 ± 0.09 | 1.38 ± 0.09
13 | COC(C)=O [methyl ethanoate] + COCC[N+]1(C)CCCC1.O=S(=O)([N-]S(=O)(=O)C(F)(F)F)C(F)(F)F | 0.71 ± 0.05 | 0.73 ± 0.05 | 0.74 ± 0.05 | 0.76 ± 0.05 | 0.77 ± 0.05 | 0.78 ± 0.05
14 | CCC(=O)OC [methyl propanoate] + COCC[N+]1(C)CCCC1.O=S(=O)([N-]S(=O)(=O)C(F)(F)F)C(F)(F)F | 0.92 ± 0.06 | 0.94 ± 0.06 | 0.96 ± 0.06 | 0.98 ± 0.06 | 0.99 ± 0.06 | 1.01 ± 0.06
15 | CC1CCCCC1 [methylcyclohexane] + COCC[N+]1(C)CCCC1.O=S(=O)([N-]S(=O)(=O)C(F)(F)F)C(F)(F)F | 15.4 ± 1.1 | 14.4 ± 1 | 13.5 ± 0.9 | 12.7 ± 0.9 | 12 ± 0.8 | 11.2 ± 0.8
16 | CCCCCCCCC [nonane] + COCC[N+]1(C)CCCC1.O=S(=O)([N-]S(=O)(=O)C(F)(F)F)C(F)(F)F | 58.1 ± 4 | 52.9 ± 3.6 | 48.4 ± 3.3 | 44.3 ± 3 | 41 ± 2.8 | 37.8 ± 2.6
17 | C=CCCCCCC [oct-1-ene] + COCC[N+]1(C)CCCC1.O=S(=O)([N-]S(=O)(=O)C(F)(F)F)C(F)(F)F | 20.8 ± 1.4 | 19.5 ± 1.3 | 18.2 ± 1.2 | 17.3 ± 1.2 | 16.3 ± 1.1 | 15.6 ± 1.1
18 | CCCCCCCC [octane] + COCC[N+]1(C)CCCC1.O=S(=O)([N-]S(=O)(=O)C(F)(F)F)C(F)(F)F | 40.5 ± 2.8 | 36.9 ± 2.5 | 33.9 ± 2.3 | 31.4 ± 2.1 | 29 ± 2 | 27 ± 1.8
19 | CCCC(C)=O [pentan-2-one] + COCC[N+]1(C)CCCC1.O=S(=O)([N-]S(=O)(=O)C(F)(F)F)C(F)(F)F | 0.83 ± 0.05 | 0.84 ± 0.05 | 0.86 ± 0.06 | 0.87 ± 0.06 | 0.89 ± 0.06 | 0.9 ± 0.06
20 | CCC(=O)CC [pentan-3-one] + COCC[N+]1(C)CCCC1.O=S(=O)([N-]S(=O)(=O)C(F)(F)F)C(F)(F)F | 0.831 ± 0.054 | 0.851 ± 0.055 | 0.871 ± 0.056 | 0.887 ± 0.056 | 0.905 ± 0.057 | 0.919 ± 0.058
21 | CCCCC [pentane] + COCC[N+]1(C)CCCC1.O=S(=O)([N-]S(=O)(=O)C(F)(F)F)C(F)(F)F | 13.4 ± 0.9 | 12.7 ± 0.9 | 12.1 ± 0.8 | 11.5 ± 0.8 | 11 ± 0.8 | 10.5 ± 0.7
22 | CCCO [propan-1-ol] + COCC[N+]1(C)CCCC1.O=S(=O)([N-]S(=O)(=O)C(F)(F)F)C(F)(F)F | 2.2 ± 0.15 | 2.02 ± 0.14 | 1.86 ± 0.13 | 1.71 ± 0.11 | 1.58 ± 0.1 | 1.48 ± 0.1
23 | CC(C)O [propan-2-ol] + COCC[N+]1(C)CCCC1.O=S(=O)([N-]S(=O)(=O)C(F)(F)F)C(F)(F)F | 2 ± 0.14 | 1.83 ± 0.12 | 1.67 ± 0.11 | 1.54 ± 0.1 | 1.43 ± 0.09 | 1.34 ± 0.09
24 | c1ccncc1 [pyridine] + COCC[N+]1(C)CCCC1.O=S(=O)([N-]S(=O)(=O)C(F)(F)F)C(F)(F)F | 0.602 ± 0.042 | 0.61 ± 0.043 | 0.618 ± 0.043 | 0.625 ± 0.043 | 0.633 ± 0.044 | 0.639 ± 0.044
25 | C=Cc1ccccc1 [styrene] + COCC[N+]1(C)CCCC1.O=S(=O)([N-]S(=O)(=O)C(F)(F)F)C(F)(F)F | 1.29 ± 0.08 | 1.32 ± 0.09 | 1.33 ± 0.09 | 1.36 ± 0.09 | 1.37 ± 0.09 | 1.39 ± 0.09
26 | C1CCOC1 [tetrahydrofuran] + COCC[N+]1(C)CCCC1.O=S(=O)([N-]S(=O)(=O)C(F)(F)F)C(F)(F)F | 0.81 ± 0.05 | 0.83 ± 0.05 | 0.84 ± 0.05 | 0.86 ± 0.06 | 0.87 ± 0.06 | 0.88 ± 0.06
27 | c1ccsc1 [thiophene] + COCC[N+]1(C)CCCC1.O=S(=O)([N-]S(=O)(=O)C(F)(F)F)C(F)(F)F | 0.885 ± 0.056 | 0.897 ± 0.057 | 0.909 ± 0.058 | 0.918 ± 0.058 | 0.929 ± 0.059 | 0.938 ± 0.059
28 | Cc1ccccc1 [toluene] + COCC[N+]1(C)CCCC1.O=S(=O)([N-]S(=O)(=O)C(F)(F)F)C(F)(F)F | 1.48 ± 0.1 | 1.5 ± 0.1 | 1.51 ± 0.1 | 1.53 ± 0.1 | 1.55 ± 0.1 | 1.56 ± 0.1
29 | O [water] + COCC[N+]1(C)CCCC1.O=S(=O)([N-]S(=O)(=O)C(F)(F)F)C(F)(F)F | 3.15 ± 0.21 | 2.81 ± 0.19 | 2.51 ± 0.17 | 2.26 ± 0.15 | 2.05 ± 0.14 | 1.85 ± 0.12
